Measured values taken from publication PMC8881077 (Journal of Enzyme Inhibition and Medicinal Chemistry, 2022).

What was measured:
PC12 cells = experiment: Neuroprotective effect on H2O2-induced PC12 cells injury, MTT assay; assay type: cell-based; conditions: compound 100 μM, 100 μM H2O2, PC12 cells
ratAChE = target: T1, ratAChE (Rattus norvegicus, UniProt P37136); experiment: biochemical; conditions: for SI: Selectivity Index = IC50 (BuChE)/IC50 (AChE), rat enzymes; for IC50: from 5% rat cortex homogenate, read-out: IC50 ± SD ratAChE
T1 construct: AChE from 5% rat cortex homogenate or human erythrocytes (Sigma Co.); from tissue; host or cells: 5% rat cortex homogenate
T1 sequence (P37136 32-614): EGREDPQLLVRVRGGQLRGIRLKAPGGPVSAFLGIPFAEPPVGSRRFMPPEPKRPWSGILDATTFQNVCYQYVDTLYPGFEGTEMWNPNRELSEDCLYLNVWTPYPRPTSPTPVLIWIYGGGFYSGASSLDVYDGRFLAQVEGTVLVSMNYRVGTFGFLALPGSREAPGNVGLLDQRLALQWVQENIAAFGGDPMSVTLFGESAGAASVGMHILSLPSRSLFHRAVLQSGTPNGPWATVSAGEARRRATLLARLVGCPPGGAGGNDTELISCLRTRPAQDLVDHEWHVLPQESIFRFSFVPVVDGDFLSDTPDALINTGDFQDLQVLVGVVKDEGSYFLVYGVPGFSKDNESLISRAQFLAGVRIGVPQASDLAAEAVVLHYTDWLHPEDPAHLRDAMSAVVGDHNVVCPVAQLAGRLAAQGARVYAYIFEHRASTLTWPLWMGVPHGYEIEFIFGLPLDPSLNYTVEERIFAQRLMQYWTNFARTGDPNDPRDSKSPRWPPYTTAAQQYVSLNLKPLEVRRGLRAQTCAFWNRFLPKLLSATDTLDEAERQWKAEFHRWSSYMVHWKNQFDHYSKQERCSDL
Description: (§1) The AChE and BuChE inhibitory activities of the synthesised compounds were evaluated using the Ellman assay with slight modification. AChE from 5% rat cortex homogenate or human erythrocytes (Sigma Co.). BuChE from rat serum or human serum (Sigma Co.).

ratBuChE = target: T2, ratBuChE (Rattus norvegicus, UniProt Q9JKC1); experiment: ratBuChE inhibition, modified Ellman's method; assay type: biochemical
T2 construct: BuChE from rat serum or human serum (Sigma Co.); from tissue; host or cells: rat serum
Description: as §1

[1] = Trolox as standard
Description: The skeleton compounds naringenin and apigenin were also evaluated for comparison purposes, and vitamin E analogue Trolox was used as a standard.
The antioxidant potency of target compounds was tested using an oxygen radical absorbance capacity fluorescein (ORAC-FL) assay.

T2 sequence (Q9JKC1 24-597): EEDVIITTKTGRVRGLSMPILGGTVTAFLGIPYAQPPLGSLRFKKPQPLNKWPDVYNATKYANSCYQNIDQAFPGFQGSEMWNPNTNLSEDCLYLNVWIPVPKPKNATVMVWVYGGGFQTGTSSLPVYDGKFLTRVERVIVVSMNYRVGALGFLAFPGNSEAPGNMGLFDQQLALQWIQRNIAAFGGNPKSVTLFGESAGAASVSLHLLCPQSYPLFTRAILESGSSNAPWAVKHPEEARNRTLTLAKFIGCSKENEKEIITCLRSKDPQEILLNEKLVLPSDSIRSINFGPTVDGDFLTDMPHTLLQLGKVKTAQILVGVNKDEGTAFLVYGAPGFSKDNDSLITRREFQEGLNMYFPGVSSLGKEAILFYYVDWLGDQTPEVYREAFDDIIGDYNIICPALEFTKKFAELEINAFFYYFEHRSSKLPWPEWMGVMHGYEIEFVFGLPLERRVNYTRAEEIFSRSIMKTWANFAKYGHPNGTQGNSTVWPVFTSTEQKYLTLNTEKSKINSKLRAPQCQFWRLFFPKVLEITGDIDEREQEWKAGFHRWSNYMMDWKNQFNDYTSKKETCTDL

Molecule	cell viability (PC12 cells)	SI (ratAChE)	IC50 (ratAChE)	IC50 (ratBuChE)	ORAC [1]
Vitamine E [reference compound]	67.6%	–	–	–	–
O=c1cc(-c2ccc(OCCCCCCN3CCC(CCCc4ccccc4)CC3)cc2)oc2cc(OCCCCCCN3CCC(CCCc4ccccc4)CC3)cc(O)c12 [Compound 10u, 5-hydroxy-7-((6–(4-(3-phenylpropyl)piperidin-1-yl)hexyl)oxy)-2–(4-((6–(4–(3-phenylpropyl)piperidin-1-yl)hexyl)oxy)phenyl)-4H-chromen-4-one]	–	2.7	6.3 ± 0.21 µM	17.2 ± 0.45 µM	1.2 ± 0.03 μM of Trolox equivalent/μM of tested compound
CCN(CCCCCCCCCCCCOc1cc(O)c2c(c1)OC(c1ccc(O)cc1)CC2=O)Cc1ccccc1 (stereo not shown) [Compound 5j, 7-((12-(benzyl(ethyl)amino)dodecyl)oxy)-5-hydroxy-2–(4-hydroxyphenyl)chroman-4-one]	–	–	6.5 ± 0.09 µM	15.9 ± 0.37 µM	2.2 ± 0.05 μM of Trolox equivalent/μM of tested compound
O=c1cc(-c2ccc(OCCCCCCN3CCc4ccccc4C3)cc2)oc2cc(OCCCCCCN3CCc4ccccc4C3)cc(O)c12 [Compound 10q, 7-((6–(3,4-dihydroisoquinolin-2(1H)-yl)hexyl)oxy)-2–(4-((6–(3,4-dihydroisoquinolin-2(1H)-yl)hexyl)oxy)phenyl)-5-hydroxy-4H-chromen-4-one]	–	2.9	4.2 ± 0.15 µM	12.2 ± 0.28 µM	1.0 ± 0.02 μM of Trolox equivalent/μM of tested compound
O=C1CC(c2ccc(OCCCN3CCC(Cc4ccccc4)CC3)cc2)Oc2cc(OCCCN3CCC(Cc4ccccc4)CC3)cc(O)c21 (stereo not shown) [Compound 7c, 7–(3-(4-benzylpiperidin-1-yl)propoxy)-2–(4-(3–(4-benzylpiperidin-1-yl)propoxy)phenyl)-5-hydroxychroman-4-one]	–	2.9	6.7 ± 0.16 µM	19.4 ± 0.28 µM	1.2 ± 0.02 μM of Trolox equivalent/μM of tested compound
CCN(CCCCCCOc1cc(O)c2c(c1)OC(c1ccc(O)cc1)CC2=O)Cc1ccccc1 (stereo not shown) [Compound 5h, 7-((6-(benzyl(ethyl)amino)hexyl)oxy)-5-hydroxy-2–(4-hydroxyphenyl)chroman-4-one]	–	4.7	3.3 ± 0.09 µM	15.5 ± 0.52 µM	2.3 ± 0.03 μM of Trolox equivalent/μM of tested compound
CCN(CCCCOc1ccc(C2CC(=O)c3c(O)cc(OCCCCN(CC)Cc4ccccc4)cc3O2)cc1)Cc1ccccc1 (stereo not shown) [Compound 7g]	–	11.2	1.4 ± 0.08 µM	15.7 ± 0.29 µM	1.2 ± 0.04 μM of Trolox equivalent/μM of tested compound
O=C1CC(c2ccc(OCCCN3CCc4ccccc4C3)cc2)Oc2cc(OCCCN3CCc4ccccc4C3)cc(O)c21 (stereo not shown) [Compound 7a, 7–(3-(3,4-dihydroisoquinolin-2(1H)-yl)propoxy)-2–(4-(3–(3,4-dihydroisoquinolin-2(1H)-yl)propoxy)phenyl)-5-hydroxychroman-4-one]	–	2.0	10.1 ± 0.41 µM	20.2 ± 0.23 µM	1.1 ± 0.02 μM of Trolox equivalent/μM of tested compound
CCN(CCCCCCOc1ccc(-c2cc(=O)c3c(O)cc(OCCCCCCN(CC)Cc4ccccc4)cc3o2)cc1)Cc1ccccc1 [Compound 10r, 7-((6-(benzyl(ethyl)amino)hexyl)oxy)-2–(4-((6-(benzyl(ethyl)amino)hexyl)oxy)phenyl)-5-hydroxy-4H-chromen-4-one]	–	8.3	1.7 ± 0.21 µM	14.1 ± 0.22 µM	1.2 ± 0.04 μM of Trolox equivalent/μM of tested compound
O=C1CC(c2ccc(OCCCCN3CCc4ccccc4C3)cc2)Oc2cc(OCCCCN3CCc4ccccc4C3)cc(O)c21 (stereo not shown) [Compound 7f, 7–(4-(3,4-dihydroisoquinolin-2(1H)-yl)butoxy)-2–(4-(4–(3,4-dihydroisoquinolin-2(1H)-yl)butoxy)phenyl)-5-hydroxychroman-4-one]	–	3.8	5.4 ± 0.16 µM	20.7 ± 0.55 µM	1.1 ± 0.03 μM of Trolox equivalent/μM of tested compound
CC1CC(C)CN(CCCOc2ccc(-c3cc(=O)c4c(O)cc(OCCCN5CC(C)CC(C)C5)cc4o3)cc2)C1 (stereo not shown) [Compound 10f, 7–(3-(3,5-dimethylpiperidin-1-yl)propoxy)-2–(4-(3–(3,5-dimethylpiperidin-1-yl)propoxy)phenyl)-5-hydroxy-4H-chromen-4-one]	–	1.9	8.6 ± 0.33 µM	16.7 ± 0.52 µM	1.0 ± 0.04 μM of Trolox equivalent/μM of tested compound
O=c1cc(-c2ccc(OCCCN3CCc4ccccc4C3)cc2)oc2cc(OCCCN3CCc4ccccc4C3)cc(O)c12 [Compound 10a, 7–(3-(3,4-dihydroisoquinolin-2(1H)-yl)propoxy)-2–(4-(3–(3,4-dihydroisoquinolin-2(1H)-yl)propoxy)phenyl)-5-hydroxy-4H-chromen-4-one]	–	2.1	8.1 ± 0.27 µM	16.8 ± 0.36 µM	1.1 ± 0.01 μM of Trolox equivalent/μM of tested compound
O=C1CC(c2ccc(OCCCCN3CCN(Cc4ccccc4)CC3)cc2)Oc2cc(OCCCCN3CCN(Cc4ccccc4)CC3)cc(O)c21 (stereo not shown) [Compound 7i, 7–(4-(4-benzylpiperazin-1-yl)butoxy)-2–(4–(4-(4-benzylpiperazin-1-yl)butoxy)phenyl)-5-hydroxychroman-4-one]	–	2.0	6.1 ± 0.21 µM	12.3 ± 0.16 µM	1.4 ± 0.03 μM of Trolox equivalent/μM of tested compound
O=c1cc(-c2ccc(OCCCCN3CCc4ccccc4C3)cc2)oc2cc(OCCCCN3CCc4ccccc4C3)cc(O)c12 [Compound 10g, 7–(4-(3,4-dihydroisoquinolin-2(1H)-yl)butoxy)-2–(4-(4–(3,4-dihydroisoquinolin-2(1H)-yl)butoxy)phenyl)-5-hydroxy-4H-chromen-4-one]	–	3.8	4.6 ± 0.21 µM	17.4 ± 0.35 µM	1.2 ± 0.03 μM of Trolox equivalent/μM of tested compound
CCN(CCCCOc1cc(O)c2c(c1)OC(c1ccc(O)cc1)CC2=O)Cc1ccccc1 (stereo not shown) [Compound 5c, 7–(4-(benzyl(ethyl)amino)butoxy)-5-hydroxy-2–(4-hydroxyphenyl)chroman-4-one]	–	5.8	3.9 ± 0.44 µM	22.6 ± 0.23 µM	2.3 ± 0.02 μM of Trolox equivalent/μM of tested compound
O=C1CC(c2ccc(O)cc2)Oc2cc(OCCCCN3CCc4ccccc4C3)cc(O)c21 (stereo not shown) [Compound 5b, 7–(4-(3,4-dihydroisoquinolin-2(1H)-yl)butoxy)-5-hydroxy-2–(4-hydroxyphenyl)chroman-4-one]	–	3.0	5.8 ± 0.19 µM	17.4 ± 0.52 µM	2.1 ± 0.04 μM of Trolox equivalent/μM of tested compound
CCN(CCCCOc1cc(O)c2c(c1)OC(c1ccc(O)cc1)CC2=O)Cc1ccccc1OC (stereo not shown) [Compound 5d, 7–(4-(ethyl(2-methoxybenzyl)amino)butoxy)-5-hydroxy-2–(4-hydroxyphenyl)chroman-4-one]	–	9.1	2 ± 0.46 µM	18.1 ± 0.56 µM	2.2 ± 0.02 μM of Trolox equivalent/μM of tested compound
O=c1cc(-c2ccc(OCCCCCCN3CCC(Cc4ccccc4)CC3)cc2)oc2cc(OCCCCCCN3CCC(Cc4ccccc4)CC3)cc(O)c12 [Compound 10s, 7-((6–(4-benzylpiperidin-1-yl)hexyl)oxy)-2–(4-((6–(4-benzylpiperidin-1-yl)hexyl)oxy)phenyl)-5-hydroxy-4H-chromen-4-one]	–	6.5	2.6 ± 0.33 µM	16.9 ± 0.54 µM	1.1 ± 0.03 μM of Trolox equivalent/μM of tested compound
O=c1cc(-c2ccc(OCCCCCN3CCC(Cc4ccccc4)CC3)cc2)oc2cc(OCCCCCN3CCC(Cc4ccccc4)CC3)cc(O)c12 [Compound 10m, 7-((5–(4-benzylpiperidin-1-yl)pentyl)oxy)-2–(4-((5–(4-benzylpiperidin-1-yl)pentyl)oxy)phenyl)-5-hydroxy-4H-chromen-4-one]	–	12.8	1.3 ± 0.08 µM	16.6 ± 0.27 µM	1.2 ± 0.02 μM of Trolox equivalent/μM of tested compound
CCN(CCCCCCCCCCOc1cc(O)c2c(c1)OC(c1ccc(O)cc1)CC2=O)Cc1ccccc1 (stereo not shown) [Compound 5i, 7-((10-(benzyl(ethyl)amino)decyl)oxy)-5-hydroxy-2–(4-hydroxyphenyl)chroman-4-one]	–	3.0	4.9 ± 0.16 µM	14.7 ± 0.62 µM	2.1 ± 0.04 μM of Trolox equivalent/μM of tested compound
